Experimental data from US10105437B2, “Epitopes related to coeliac disease” (BTG International Limited, priority 2004, dated 2018).

Tested on: PBMC from HLA-DQ2+ coeliac subjects
Assay: Interferon gamma ELISPOT, hordein 20mer first round library after barley challenge
Format: cell-based, human
Parameters: key to individual peptide showing maximal response in a single individual (asterisk): *: an asterisk indicates the eight individual peptides showing maximal response in a single individual
Conditions: for number of subjects with > 70% maximal response / subjects with at least 40% maximal peptide response: 17 subjects
Description: Peptides were initially dissolved in aqueous acetonitrile (50%). Peptides in aqueous acetonitrile were transferred to sterile 96-well plates and diluted in sterile PBS with 1 mM calcium (250 mcg/ml) and then incubated with tTG (25 mcg/ml) (Sigma T5398) for 6 h 37° C. and then stored frozen (−20° C.) until use.
IFNγ ELISpot assays (Mabtech, Sweden) were performed in 96-well plates (MAIP S-45, Millipore) in which each well contained 25 mcl of peptide solution and 100 mcl of PBMC (2-8×10^5/well) in RPMI containing 10% heat inactivated human AB serum. After development and drying, IFNγ ELISpot plates were assessed using the MAIP automated ELISpot plate counter. Data was then analysed according to a novel algorithm (Expectation Maximization: EM) to define and quantify interferon-gamma responses to 9mer sequences contained within the peptide library (see FIG. 3 and below). 9mer peptides were then rationalised according to an algorithm that assumes redundancy in T-cell recognition, the “IterativeCluster” algorithm (see FIG. 4 and below), by allowing groups of amino acids with similar chemical properties at any one position in the 9mer, or for glutamate to replace glutamine at any position (assuming deamidation may have occurred).
Secalin and hordein 20mer first round peptide libraries were assessed 3 days after completing rye (bread, 100 g/d for 3 days) or barley (boiled, 100 g/d for 3 days) challenge (“day 6” PBMC interferon gamma ELISPOT responses). Although iterative analysis using 2nd and 3rd round peptide libraries to define epitopes has not yet been performed, the 20mers pre-treated with tTG found to induce “potent” responses shared substantial structural similarity to the bioactive peptides identified after wheat challenge. […] The dominant (>70% maximal response) 20mer after rye challenge was usually […] (SEQ ID NO: 1769) (8/14 subjects), or occasionally […] (SEQ ID NO: 1770) (4/14), […] (SEQ ID NO: 1771) (1/14), […] (SEQ ID NO: 1772) (1/14) and/or […] (SEQ ID NO: 1773) (1/14). Additional peptides noted for greater than 40% maximal response in at least 1 subject include:
Typically, the dominant peptides after barley challenge included one of six peptide motifs, or were one of eight other individual 20mers “dominant” in only one of 17 subjects after barley challenge. The six motifs identified:
The barley hordein peptides showing at least 40% maximal peptide response in at least one subject include the following, wherein an asterisk indicates the eight individual peptides showing maximal response in a single individual: […]

| Sequence | individual peptide showing maximal response in a single individual (asterisk) | number of subjects with > 70% maximal response | subjects with at least 40% maximal peptide response |
| --- | --- | --- | --- |
| QGSEQIIPQQPQQPFPLQPH (Description of Artificial Sequence: Synthetic gluten peptide) [barley hordein 20mer] | * | 3 | 7/17 |
| QPQQPQPFPQQPVPQQPQPY (Description of Artificial Sequence: Synthetic gluten peptide) [barley hordein 20mer] |  | 2 | 5/17 |
| FQQPQQSYPVQPQQPFPQPQ (Description of Artificial Sequence: Synthetic gluten peptide) [barley hordein 20mer] |  | 1 | 3/17 |
| RQLPKYIIPQQPQQPFLLQP (Description of Artificial Sequence: Synthetic gluten peptide) [barley hordein 20mer] |  | 1 | 1/17 |
| QPFPTPQQFFPYLPQQTFPP (Description of Artificial Sequence: Synthetic gluten peptide) [barley hordein 20mer] |  | 1 | 4/17 |
| SPLQPQQPFPQGSEQIIPQQ (Description of Artificial Sequence: Synthetic gluten peptide) [barley hordein 20mer] |  | 0 | 1/17 |
| QPQQPFPQPQQPIPYQPQQP (Description of Artificial Sequence: Synthetic gluten peptide) [barley hordein 20mer] | * | 1 | 4/17 |
| PFPQPPQQKYPEQPQQPFPW (Description of Artificial Sequence: Synthetic gluten peptide) [barley hordein 20mer] |  | 1 | 1/17 |
| PQPFPQQPIPQQPQPYPQQP (Description of Artificial Sequence: Synthetic gluten peptide) [barley hordein 20mer] |  | 2 | 6/17 |
| PVLSQQQPCTQDQTPLLQEQ (Description of Artificial Sequence: Synthetic gluten peptide) [barley hordein 20mer] |  | 1 | 1/17 |
| PQGSEQIIPQQPFPLQPQPF (Description of Artificial Sequence: Synthetic gluten peptide) [barley hordein 20mer] |  | 1 | 2/17 |
| QQPQPFSQQPIPQQPQPYPQ (Description of Artificial Sequence: Synthetic gluten peptide) [barley hordein 20mer] |  | 8 | 9/17 |
| PFPQQPQQPFPQPQQPFRQQ (Description of Artificial Sequence: Synthetic gluten peptide) [barley hordein 20mer] |  | 3 | 6/17 |
| QPFPQPQQPFPWQPQQPFPQ (Description of Artificial Sequence: Synthetic gluten peptide) [barley hordein 20mer] |  | 2 | 10/17 |
| PQQPVPQQPQPYPQQPQPFP (Description of Artificial Sequence: Synthetic gluten peptide) [barley hordein 20mer] |  | 1 | 5/17 |
| WQPQQPFPQPQQPFPLQPQQ (Description of Artificial Sequence: Synthetic gluten peptide) [barley hordein 20mer] | * | 5 | 9/17 |
| PYLPEELSPQYQIPTPLQPQ (Description of Artificial Sequence: Synthetic gluten peptide) [barley hordein 20mer] | * | 1 | 1/17 |
| FPLQPQQPFPQQPQQPFPQQ (Description of Artificial Sequence: Synthetic gluten peptide) [barley hordein 20mer] |  | 0 | 1/17 |
| QIPYVHPSILQQLNPCKVFL (Description of Artificial Sequence: Synthetic gluten peptide) [barley hordein 20mer] |  | 1 | 1/17 |
| QQPFPQPQQPIPYQPQQPFN (Description of Artificial Sequence: Synthetic gluten peptide) [barley hordein 20mer] |  | 1 | 5/17 |
| LAAQLPAMCRLEGGGGLLAS (Description of Artificial Sequence: Synthetic gluten peptide) [barley hordein 20mer] |  | 1 | 1/17 |
| QPQPYPQQPQPYPQQPFQPQ (Description of Artificial Sequence: Synthetic gluten peptide) [barley hordein 20mer] |  | 2 | 7/17 |
| PQQPPFWPQQPFPQQPPFGL (Description of Artificial Sequence: Synthetic gluten peptide) [barley hordein 20mer] | * | 1 | 1/17 |
| FPQPQEPFPQQPQQPFPLQP (Description of Artificial Sequence: Synthetic gluten peptide) [barley hordein 20mer] |  | 0 | 1/17 |
| PQQASPLQPQPQQASPLQPQ (Description of Artificial Sequence: Synthetic gluten peptide) [barley hordein 20mer] |  | 1 | 1/17 |
